Test results: patent US20150202187A1, “COMPOSITIONS AND METHODS FOR TREATMENT OF VITILIGO” (priority 2012, published 2015)

Tests used:
human melanocytes = assay: Melanogenesis in cultured primary human melanocytes; assay type: cell-based
Procedure: Rapamycin (also called sirolimus) inhibits immune attack by inhibiting the response to interleukin-2 (IL-2) and blocking activation of T- and B-cells. Rapamycin binds to the cytosolic protein FK-binding protein 12 (FKBP12) and inhibits the mammalian target of rapamycin (mTOR) pathway by directly binding the mTOR Complex 1 (mTORC1). […] For example, FIG. 1 depicts a western blot of lysates from HL60 cells, a model system for studying human myeloid cell differentiation, which were treated with rapamycin for 24 hours. […] Additionally, FIG. 2 depicts human melanocytes that were treated with rapamycin (0.01 μM) for 96 hours.
(§1) In FIG. 5, Primary Human melanocytes were treated with each agent or the combination for 96 h. […] FIG. 7 depicts a Western blot for protein expression of survival signals in primary human melanocytes treated with FGF, stem cell factor (SCF), forskolin and alpha-MSH, as compared to untreated melanocytes. […] Designation of 1 indicates the darkening (repigmentation) of skin surrounding hair follicles.

[1] = test system: primary human melanocytes; assay: Proliferation of primary human melanocytes; assay type: cell-based; settings: 10 ng/mL, 96 h, DMSO as untreated control (FIG. 3)
Procedure: In some embodiments, the present invention is directed to a composition comprising a cosmeceutically acceptable carrier, rapamycin and growth factors such as fibroblast growth factor (FGF), Stem cell Factor (SCF) or Endothelins. […] In FIG. 3, treated Primary Human melanocytes were treated with bFGF (10 ng/mL) with DMSO as untreated control for 96 h. Growth Factors such as basic Fibroblast Growth Factor, Stem Cell Factor and Endothelins are important regulators of melanocyte differentiation, migration, proliferation and survival. Growth factors can therefore protect cells from destruction induced by immune cells. Furthermore, growth factors such as those described, can potentially increase migration of melanoblasts (melanocyte precursor cells) from peripheral regions of vitiligo patches or from hair follicles into the vitiligo lesion thus allowing repigmentation.
as §1

In the case of `N[C@@H](Cc1ccc(O)c(O)c1)C(=O)O` [L-dopa, L-DOPA], the “melanogenesis compared to untreated melanocytes” value (human melanocytes; FIG. 6) is reported as “increased melanogenesis” and the “melanogenesis in human melanocytes” value (human melanocytes; each agent alone, 96 h (FIG. 4)) is reported as “melanogenesis increases”.

With `N[C@@H](Cc1ccc(O)cc1)C(=O)O` [L-Tyrosine] the “melanogenesis in cultured primary melanocytes” value (human melanocytes; 96 hours (FIG. 10)) was “increased melanogenesis”.

For “bFGF: recombinant human basic fibroblast growth factor (FGF2)”, the “proliferation of primary human melanocytes” value [1] was “increases proliferation”.
